The text below walks through data of the NIST ThermoML archive (doi:10.1021/je0503554).

A short description of the data set: activity coefficient (dimensionless); of the first substance listed, at infinite dilution; xn = mol fraction of the nth substance listed. The note with it: Liquid, Chromatography, x1 = 0.

Where “and” joins values, the source holds several entries; their conditions need not be identical. Identical values can stand only once. Numbers after ± are expanded uncertainties.

As to `CCC=O` [propanal] + CCCCCC[n+]1ccn(C)c1.O=S(=O)([N-]S(=O)(=O)C(F)(F)F)C(F)(F)F, the activity coefficient is, setting by setting: (301.75 K) 0.453 ± 0.036; (312.25 K) 0.45 ± 0.036; (322.85 K) 0.444 ± 0.036; (333.35 K) 0.439 ± 0.035.
On to `CCCCCCC` [heptane] + CCCCCC[n+]1ccn(C)c1.O=S(=O)([N-]S(=O)(=O)C(F)(F)F)C(F)(F)F, for which the activity coefficient (300.95 K) is 11.2 ± 0.76; the activity coefficient (312.25 K) was determined as 10.4 ± 0.71; the activity coefficient (322.85 K) was determined as 9.69 ± 0.66; the activity coefficient (333.25 K) came to 9.09 ± 0.62; the activity coefficient (343.75 K) was 8.65 ± 0.59.
As to `C=CCCC` [1-pentene] + CCCCCC[n+]1ccn(C)c1.O=S(=O)([N-]S(=O)(=O)C(F)(F)F)C(F)(F)F, the activity coefficient (301.95 K) amounted to 3.63 ± 0.23, the activity coefficient (312.45 K) came to 3.54 ± 0.23, the activity coefficient (322.95 K) worked out at 3.43 ± 0.24 and the activity coefficient (333.45 K) was 3.39 ± 0.25.
As for `CCCCO` [butan-1-ol] + CCCCCC[n+]1ccn(C)c1.O=S(=O)([N-]S(=O)(=O)C(F)(F)F)C(F)(F)F, the activity coefficient by setting is: (322.65 K) 2.06 ± 0.14; (333.15 K) 1.83 ± 0.12; (343.65 K) 1.67 ± 0.11; (354.15 K) 1.53 ± 0.1.
On to `CCCCCCCCCCC` [undecane] + CCCCCC[n+]1ccn(C)c1.O=S(=O)([N-]S(=O)(=O)C(F)(F)F)C(F)(F)F, for which the activity coefficient came to 37.3 ± 2.5 (312.35 K); 34.1 ± 2.3 (322.85 K); 30 ± 2 (333.35 K); 27.7 ± 1.9 (343.75 K); 26 ± 1.8 (354.25 K).
For `C=CCCCCCCCCCC` [1-dodecene] + CCCCCC[n+]1ccn(C)c1.O=S(=O)([N-]S(=O)(=O)C(F)(F)F)C(F)(F)F, the activity coefficient is 25.6 ± 1.8 (333.15 K); 23.1 and 22.7 (343.75 K); 21.1 and 20.5 (354.15 K); 19.3 ± 1.3 (364.55 K); 18.7 ± 1.3 (364.65 K); 16.9 ± 1.1 (374.95 K).
On to `Cc1ccccc1` [toluene] + CCCCCC[n+]1ccn(C)c1.O=S(=O)([N-]S(=O)(=O)C(F)(F)F)C(F)(F)F, for which the activity coefficient was 1.04 ± 0.07 (307.05 K); 1.04 ± 0.07 (312.35 K); 1.06 ± 0.07 (322.85 K); 1.06 ± 0.07 (333.35 K); 1.08 ± 0.07 (343.85 K).
For `CCCCCC` [hexane] + CCCCCC[n+]1ccn(C)c1.O=S(=O)([N-]S(=O)(=O)C(F)(F)F)C(F)(F)F, the activity coefficient by setting is: (301.85 K) 8.03 ± 0.55; (312.25 K) 7.65 ± 0.52; (322.85 K) 7.41 ± 0.51; (333.25 K) 6.94 ± 0.47; (343.75 K) 6.74 ± 0.46.
For `CCCCCCCC=O` [octanal] + CCCCCC[n+]1ccn(C)c1.O=S(=O)([N-]S(=O)(=O)C(F)(F)F)C(F)(F)F, the activity coefficient is 1.9 ± 0.13 (354.05 K); 1.92 ± 0.13 (364.45 K); 1.94 ± 0.13 (374.95 K); 1.96 ± 0.13 (385.45 K); 1.97 ± 0.13 (395.95 K).
Take `C=CCCCCC` [1-heptene] + CCCCCC[n+]1ccn(C)c1.O=S(=O)([N-]S(=O)(=O)C(F)(F)F)C(F)(F)F: the activity coefficient by setting is: (301.95 K) 6.36 ± 0.43; (312.45 K) 6.18 ± 0.42; (322.95 K) 5.96 ± 0.41; (333.45 K) 5.69 ± 0.39; (343.95 K) 5.44 ± 0.37; (354.35 K) 5.26 ± 0.36.
`CC(C)O` [propan-2-ol] + CCCCCC[n+]1ccn(C)c1.O=S(=O)([N-]S(=O)(=O)C(F)(F)F)C(F)(F)F: the activity coefficient worked out at 1.93 ± 0.13 (301.65 K); 1.68 ± 0.11 (312.25 K); 1.49 ± 0.1 (322.75 K); 1.33 ± 0.09 (333.25 K); 1.21 ± 0.08 (343.75 K); 1.09 ± 0.07 (354.05 K).
On to `CCCO` [propan-1-ol] + CCCCCC[n+]1ccn(C)c1.O=S(=O)([N-]S(=O)(=O)C(F)(F)F)C(F)(F)F, for which the activity coefficient (312.45 K) turned out to be 2.15 ± 0.15; the activity coefficient (323.05 K) worked out at 1.86 ± 0.13; the activity coefficient (333.45 K) turned out to be 1.63 ± 0.11; the activity coefficient (343.95 K) stood at 1.43 ± 0.09; the activity coefficient (354.45 K) is 1.27 ± 0.08.
Take `ClC(Cl)Cl` [trichloromethane] + CCCCCC[n+]1ccn(C)c1.O=S(=O)([N-]S(=O)(=O)C(F)(F)F)C(F)(F)F: the activity coefficient came out at 0.67 ± 0.045 (301.75 K); 0.67 ± 0.045 (301.85 K); 0.68 ± 0.046 (312.25 K); 0.68 ± 0.046 (312.45 K); 0.69 ± 0.046 (322.85 K); 0.7 ± 0.047 (323.05 K). Also, the activity coefficient (333.45 K) came to 0.71 ± 0.047 and the activity coefficient (343.95 K) amounted to 0.72 ± 0.048.
As for `CCc1ccccc1` [ethylbenzene] + CCCCCC[n+]1ccn(C)c1.O=S(=O)([N-]S(=O)(=O)C(F)(F)F)C(F)(F)F, the activity coefficient reads like this: (322.85 K) 1.55 ± 0.1; (333.35 K) 1.55 ± 0.1; (343.85 K) 1.54 ± 0.1; (354.25 K) 1.53 ± 0.1.
Take `C1=CCCC=C1` [1,3-cyclohexadiene] + CCCCCC[n+]1ccn(C)c1.O=S(=O)([N-]S(=O)(=O)C(F)(F)F)C(F)(F)F: the activity coefficient was determined as 1.8 ± 0.12 (312.05 K); 1.76 ± 0.12 (322.65 K); 1.72 ± 0.12 (333.15 K); 1.67 ± 0.11 (343.65 K); 1.62 ± 0.11 (354.25 K).
For the compound `C=CCCCCCC` [oct-1-ene] + CCCCCC[n+]1ccn(C)c1.O=S(=O)([N-]S(=O)(=O)C(F)(F)F)C(F)(F)F, the activity coefficient was found to be 8.83 ± 0.6 (301.95 K); 8.43 ± 0.58 (312.45 K); 8.08 ± 0.55 (322.95 K); 7.66 ± 0.52 (333.45 K); 7.37 ± 0.5 (343.95 K); 7.16 ± 0.49 (354.35 K).
Consider `CCCC=O` [butanal] + CCCCCC[n+]1ccn(C)c1.O=S(=O)([N-]S(=O)(=O)C(F)(F)F)C(F)(F)F, for which the activity coefficient by setting is: (301.75 K) 0.578 ± 0.041; (312.25 K) 0.576 ± 0.041; (322.85 K) 0.574 ± 0.041; (333.35 K) 0.572 ± 0.041.
As to `C=CCCCCCCCCC` [1-undecene] + CCCCCC[n+]1ccn(C)c1.O=S(=O)([N-]S(=O)(=O)C(F)(F)F)C(F)(F)F, the activity coefficient reads like this: (322.65 K) 21 ± 1.4; (333.15 K) 19.2 ± 1.3; (343.75 K) 17.4 ± 1.2; (359.4 K) 15.4 ± 1.1; (369.85 K) 14.3 ± 0.97; (375.05 K) 14.1 ± 0.96.
For `CCC(=O)OC` [methyl propanoate] + CCCCCC[n+]1ccn(C)c1.O=S(=O)([N-]S(=O)(=O)C(F)(F)F)C(F)(F)F, the activity coefficient (322.75 K) is 0.681 ± 0.046, the activity coefficient (333.25 K) worked out at 0.683 ± 0.046, the activity coefficient (343.65 K) is 0.685 ± 0.046 and the activity coefficient (354.15 K) was 0.688 ± 0.046.
As to `CCCCCCCCCCCC` [dodecane] + CCCCCC[n+]1ccn(C)c1.O=S(=O)([N-]S(=O)(=O)C(F)(F)F)C(F)(F)F, the activity coefficient reads like this: (333.35 K) 39.6 ± 2.7; (343.75 K) 36.4 ± 2.5; (354.25 K) 34.2 ± 2.3; (364.75 K) 30.3 ± 2.1.
With `CO` [methanol] + CCCCCC[n+]1ccn(C)c1.O=S(=O)([N-]S(=O)(=O)C(F)(F)F)C(F)(F)F, the activity coefficient (301.95 K) was 1.46 ± 0.1; the activity coefficient (312.45 K) is 1.34 ± 0.09; the activity coefficient (323.05 K) was 1.22 ± 0.08; the activity coefficient (333.45 K) is 1.1 ± 0.07; the activity coefficient (343.95 K) is 0.99 ± 0.06; the activity coefficient (354.45 K) was 0.93 ± 0.06.
